Laboratory results as given in ChEMBL document CHEMBL5604062, “ASAP - ZIKV NS2B-NS3 protease fluorescence dose response” (2024).
Values joined by “and” are separate entries in the source; they are usually repeats but may differ in a detail not shown here. Equal entries are not always repeated.

How the values were obtained:
Nonstructural protein 3 [1] = target: T1, Nonstructural protein 3 (Zika virus, UniProt A0A024AXB9); assay: (§1) Functional biochemical assay to identify treatments for viral infectious disease that targets Zika NS2B-NS3 protease. Utilizing a direct enzyme activity measurement method, reading the fluorescence intensity is used to characterize the relative potency of inhibitors as IC50. Synthetic construct has been made based on Zika virus (strain PRVABC59) by Centre for Medicines Discovery, University of Oxford, and the assay has been performed by Stanford University.The protocol is publicly available: dx.doi.org/10.17504/protocols.io.x54v9r83zv3e/v1
Nonstructural protein 3 [2] = target: T1, Nonstructural protein 3; assay: as §1, with “Enamine biological services, Bienta Ltd.The” for “Stanford University.The”, “dx.doi.org/10.17504/protocols.io.36wgqn273gk5/v1” for “dx.doi.org/10.17504/protocols.io.x54v9r83zv3e/v1”
Nonstructural protein 3 [3] = target: T1, Nonstructural protein 3; assay: Functional biochemical assay to identify treatments for viral infectious disease that targets Zika NS2B-NS3 protease. Utilizing a direct enzyme activity measurement method, reading the fluorescence intensity is used to characterize the relative potency of inhibitors as IC50.; set-up: species or system PRVABC59

T1 sequence (A0A024AXB9 whole entry): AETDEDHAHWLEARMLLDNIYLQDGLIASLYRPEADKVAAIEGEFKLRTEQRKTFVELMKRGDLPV

| IC50 (Nonstructural protein 3 [1]) [µM] | IC50 (Nonstructural protein 3 [2]) | IC50 (Nonstructural protein 3 [3]) | SMILES |
| --- | --- | --- | --- |
| 24.9 | – | – | Cc1c(C=O)c2ccccn2c1C#N |
| 49.8 | – | – | O=Cc1ccc(N2CCCCC2)cc1 |
| 53.7 | – | – | O=Cc1ccc(N2CCC(C(=O)O)CC2)cc1 |
| 36.4 | – | – | Cc1c(C=O)c2ccccn2c1C(=O)c1ccncc1 |
| 30.4 | – | – | O=Cc1ccc(N2CCC(C(=O)O)CC2)o1 |
| 43 | – | – | CC[C@H]1CO[C@H](C)CN1c1ccc(C=O)cn1 |
| 46.3 | – | – | O=Cc1nc(-c2ccccc2Cl)n2ccccc12 |
| 31 | – | – | CN(C)c1ccc(C=C(C#N)C(N)=O)cc1 |
| 65.8 | – | – | O=Cc1ccc(N2CCCCCC2)cc1 |
| – | > 25 µM | > 25 µM | O=C1Cc2c(cccc2C(=O)Nc2ccc3c(c2)[C@H](O)CCO3)N1 |
| – | 2.21 µM and 1.7 µM | 0.65 µM | CS(=O)(=O)NC(=O)C[C@H]1NCc2cc(NC(=O)c3cc(Cl)cc4[nH]ncc34)ccc21 |
| 64.5 | – | – | Cc1nc(C=O)c2ccccn12 |
| – | > 25 µM | > 25 µM | O=C1Cc2c(cccc2C(=O)Nc2cnn(Cc3ccncc3)c2)N1 |
| – | > 25 µM | > 25 µM | Cn1nc(CNc2cc(-c3cccnc3)ccn2)cc1C1CC1 |
| – | > 25 µM | > 25 µM | O=C1Cc2c(cccc2C(=O)Nc2cccc(Cc3nn[nH]n3)c2)N1 |
| – | > 25 µM | > 25 µM | CO[C@H]1Cc2ccc(NC(=O)c3cc(C4CC4)n(C)c3C)cc2C1 |
| – | 0.636 µM | 0.358 µM | O=C(NCC(F)F)[C@H](Nc1ccc2c(c1)CNC2)c1cc(Br)ccc1C1CC1 |
| – | 0.32 µM and 0.334 µM | 0.297 µM | C=C(C)c1ccc(Cl)cc1[C@H](Nc1ccc2c(c1)CNC2)C(=O)NCC(F)F |

| IC50 (Nonstructural protein 3 [1]) [µM] | IC50 (Nonstructural protein 3 [2]) | IC50 (Nonstructural protein 3 [3]) | SMILES |
| --- | --- | --- | --- |
| – | 4.62 µM | 1.21 µM | COCCN(C)C(=O)[C@H](Nc1ccc2c(c1)CNC2)c1cc(Cl)cc(C2CC2)c1 |
| – | > 25 µM | > 25 µM | Cc1c(C(=O)Nc2ccc3c(c2)CCC(=O)N3CC2CCC2)cc(C2CC2)n1C |
| – | > 25 µM | > 25 µM | Cc1c(C(=O)Nc2ccc3c(c2)C(=O)NC3)cc(C2CC2)n1C |
| – | 0.07 µM and 0.079 µM | 0.016 µM and < 0.012 µM | N#CCc1cc(NC(=O)c2cc(F)cc3[nH]ncc23)cc2c1CNC2 |
| – | 7.5 µM | 2.77 µM | N[C@H]1Cc2ccc(NC(=O)c3cccc4c3CC(=O)N4)cc2C1 |
| – | > 25 µM | > 25 µM | C[C@H](NC(=O)c1cccc2c1CC(=O)N2)c1nnc2n1CCCC2 |
| – | 3.58 µM and 3.95 µM | 1.51 µM | C[C@H]1NCc2ccc(NC(=O)c3cc(Cl)cc4[nH]ncc34)cc21 |
| – | > 25 µM | > 25 µM | NCCCn1c(C2CC2)cc(C(=O)Nc2cc([C@H]3CCOC3)ccn2)c1C1CC1 |
| 2.5 | – | > 99.5 µM | Nc1ccc2ccc(B(O)O)cc2c1 |
| – | > 25 µM | > 25 µM | CC(C)(C)OC(=O)N1Cc2ccc(N[C@H](C(=O)O)c3cc(Cl)cc4[nH]ncc34)cc2C1 |
| – | > 25 µM | > 25 µM | Cc1c(C(=O)Nc2cccc(CN3CCCC3=O)c2)cc(C2CC2)n1C |
| – | 4.16 µM and 3.34 µM | 10.7 µM | C[C@H]1C(=O)Nc2ccc(C(=O)Nc3ccc4c(c3)CNC4)cc21 |
| – | 0.089 µM | 0.017 µM and 0.016 µM and < 0.012 µM | O=C(Nc1ccc2c(c1)CNC2)c1cccc2c(C3CNC3)n[nH]c12 |
| – | > 25 µM | > 25 µM | Cc1cc(NC(=O)c2cc(C3CC3)n(C)c2C)ccc1OC1CCOCC1 |
| – | 5.5 µM | 1.33 µM | O=C(NCC(F)F)[C@H](Nc1ccc2c(n1)CNC2)c1cc(Cl)cc(C2CC2)c1 |
| – | 3.72 µM | 2.38 µM | CC(=O)N[C@]1(C)C(=O)Nc2cc(F)cc(C(=O)Nc3ccc4c(c3)CNC4)c21 |
| – | 8.15 µM | 1.47 µM and 1.73 µM | O=C1Nc2ccc(C(=O)Nc3ccc4c(c3)CNC4)cc2C1=O |

| SMILES | IC50 (Nonstructural protein 3 [1]) [µM] | IC50 (Nonstructural protein 3 [2]) | IC50 (Nonstructural protein 3 [3]) |
| --- | --- | --- | --- |
| Cc1cc(NS(=O)(=O)c2ccc(S(=O)(=O)F)cc2)c[nH]c1=O | 13.1 | – | – |
| Clc1cc(CNc2ccc3c(n2)CNC3)c2cn[nH]c2c1 | – | > 25 µM | > 25 µM |
